Laboratory results from the supplement of paper PMC10307832.

Assays:
Experiment in all cases: relative viability (nuclei count vs DMSO), 5 days (fraction); higher = more cells survive
[1] = compound: Cc1ccc2nc(NCCN)c3ncc(C)n3c2c1 + N=C(N)NC(=N)NCCc1ccccc1 [Phenformin] (partner 250 µM)
Outline: (§1)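 The day after seeding in 1536-well plates, lung cancer cell lines were treated by pin tool with a single drug, or with a fixed anchor-drug dose together with five library-drug doses (not always all listed) in √10 steps. After 5 days, a combined fix-and-stain solution (final 0.05% Triton X-100, 1% formaldehyde, 1 ug/ml Hoechst) was added. Nuclei counted on 4× images gave relative viability as treated counts over vehicle counts, reported as the median of duplicate plates.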

[2] = compound: O=C(/C=C/c1ccccc1)NC(NC(=S)Nc1cccc2cccnc12)C(Cl)(Cl)Cl [Salubrinal] + Cc1nc(NC(=O)N2CCC[C@H]2C(N)=O)sc1-c1ccnc(C(C)(C)C(F)(F)F)c1 [Alpelisib] (partner 2 µM)
Outline: as §1

[3] = compound: Cc1ccc2nc(NCCN)c3ncc(C)n3c2c1 + O=C(CCCCCCC(=O)Nc1ccccc1)NO [Vorinostat] (partner 1 µM)
Outline: as §1

[4] = compound: Cc1ccc2nc(NCCN)c3ncc(C)n3c2c1 + C[C@]1(O)C[C@@H](c2nc(-c3ccc4ccc(-c5ccccc5)nc4c3)c3c(N)nccn32)C1 [Linsitinib] (partner 1 µM)
Outline: as §1

UMC-11 was tested. Which relative viability ([1]; first compound 0.04 µM) did it give?
The relative viability was 0.352.

And the relative viability ([1]; first compound 0.1265 µM)?
The relative viability was 0.319.

And the relative viability ([1]; first compound 0.4 µM)?
Its relative viability is 0.333.

What about the relative viability ([1]; first compound 1.265 µM) of the same cell line?
The relative viability was 0.335.

And the relative viability ([1]; first compound 4 µM)?
The relative viability was 0.349.

What about the relative viability ([2]; first compound 0.08 µM) of the same cell line?
The relative viability was 1.29.

And the relative viability ([2]; first compound 0.253 µM)?
The relative viability was 0.782.

What about the relative viability ([2]; first compound 0.8 µM) of the same cell line?
Its relative viability is 1.11.

What about the relative viability ([2]; first compound 2.53 µM) of the same cell line?
Its relative viability is 0.963.

And the relative viability ([2]; first compound 8 µM)?
Its relative viability is 0.89.

What about the relative viability ([3]; first compound 0.04 µM) of the same cell line?
The relative viability was 0.421.

And the relative viability ([3]; first compound 0.1265 µM)?
Its relative viability is 0.344.

And the relative viability ([3]; first compound 0.4 µM)?
The relative viability was 0.372.

And the relative viability ([3]; first compound 1.265 µM)?
The relative viability was 0.371.

What about the relative viability ([3]; first compound 4 µM) of the same cell line?
Its relative viability is 0.357.

What about the relative viability ([4]; first compound 0.04 µM) of the same cell line?
Its relative viability is 1.03.

And the relative viability ([4]; first compound 0.1265 µM)?
Its relative viability is 0.94.

And the relative viability ([4]; first compound 0.4 µM)?
Its relative viability is 1.

And the relative viability ([4]; first compound 1.265 µM)?
The relative viability was 1.12.

What about the relative viability ([4]; first compound 4 µM) of the same cell line?
The relative viability was 0.956.
